Read-outs that look alike come from different tables or passages of the source. One block for each compound: values may come before it.
What was measured:
[1] = Iodination of arachidonic acid by molecular iodine with additional iodate (thiosulfate titration, Example 3); type: physicochemical
Description: A stock solution of 10 mg/ml arachidonic acid in ethanol was prepared. […] A control vial was prepared that had no arachidonic acid. An iodate/iodide solution was prepared separately by adding NaIO3 (Sigma-Aldrich, St. Louis, Mo.; part number […]) and NaI (Sigma-Aldrich, St.

[2] = cited from earlier work
[3] = Iodination of arachidonic acid by molecular iodine (thiosulfate titration, Example 1); type: physicochemical; details: 0.01N sodium thiosulfate titration
Description: A stock solution of 10 mg/ml arachidonic acid in ethanol was prepared. […] A control vial was prepared that had no arachidonic acid.
An iodate/iodide solution was prepared separately by adding NaIO3 (Sigma-Aldrich, St. Louis, Mo.; part number S4007-500G) and NaI (Sigma-Aldrich, St. Louis, Mo.; part number […]) to final concentrations of 3.16 and 20.55 mM, respectively, in 0.64M sodium carbonate in water.
Vials were then titrated with 0.01N sodium thiosulfate solution until the samples went from dark blue to colorless.
Since the oxidation of iodide after acidification is diffusion controlled, the reaction of iodate with iodide is essentially instantaneous and five moles of iodide reacts with each mole of iodate to form 3 moles of molecular iodine.
The ratio of iodide to iodate used in this experiment insured that there was unreacted […] present in the solution after acidification with HCl.

[4] = Description: An iodate/iodide solution was prepared separately by adding sodium iodate (Sigma-Aldrich, St. Louis, Mo.; part number S4007-500G) and sodium iodide (Sigma Aldrich, St. Louis, Mo.; part number 383112-100G) to final concentrations of 3.16 and 20.55 mM, respectively, in 0.64M sodium carbonate in water. One mL of the iodate/iodide solution was then added to the vials followed by 100 μl of 0.5% starch indicator.
This additional sodium iodate was added to provide additional oxidant to re-oxidize any iodide that might be formed by the iodination of arachidonic acid.
Two mL of 1N HCl was added and a visual observation of the samples was recorded. Vials were then titrated with 0.01N sodium thiosulfate solution until the samples went from dark blue to colorless.

[5] = system: N-methyl-N-nitrosourea-induced mammary carcinogenesis; details: in vivo; cited from earlier work
[6] = Subchronic administration to male rats, thyroid weight; type: in vivo; details: mammals; iodide vs molecular iodine
[7] = male rats, subchronic administration, cited from earlier work

decrease of molecular iodine observed from Sample 3 to Sample 4 ([1]; 1 mg arachidonic acid, additional iodate): 0.50 ∞mol | molecular iodine reacted with ([1]; one mg arachidonic acid, Sample 2 vs Sample 1, unit of the source corrected): 1 µmol | Thiosulfate ([3]; 0.3 mg arachidonic acid): 1.75 mL | Thiosulfate ([3]; 1.0 mg arachidonic acid): 1.62 mL
SMILES: CCCCC/C=C\C/C=C\C/C=C\C/C=C\CCCC(=O)O [Arachidonic Acid, (5Z,8Z,11Z,14Z)-5,8,11,14-eicosatetraenoic acid]
systemic inflammation ([2]; bodybuilders, 1500 mg): may reduce systemic inflammation | toxicity or safety risk ([2]; daily oral administration of up to 1500 mg): no toxicity or safety risk | carcinogenicity ([2]; in vivo): not carcinogenic

Thiosulfate ([1]; sample 2: 1 mg acid, no additional NaIO3): 1.70 mL | Thiosulfate ([1]; sample 4: 1 mg acid, additional NaIO3 188 ∝g): 2.10 mL | Thiosulfate ([4]; sample 2: 1 mg sorbic acid, no additional NaIO3): 1.45 mL | Thiosulfate ([4]; sample 4: 1 mg sorbic acid, additional NaIO3 188 ∝g): 1.60 mL
SMILES: C/C=C/C=C/C(=O)O [Sorbic Acid, sorbic acid, reference compound]

concentration affecting thyroid weight, less than for a comparable effect from molecular iodine [6]: 10 fold
SMILES: I [iodide]
formation of carcinogen induced tumors [5]: not | thyroid weight ([7]; 10 mg/kg): increased

SMILES: II [molecular iodine]
formation of carcinogen induced tumors [5]: inhibits | thyroid weight ([7]; even at 100 mg/kg): did not affect thyroid weight

From patent publication US20190105344A1, “ORAL MOLECULAR IODINE COMPOSITION AND METHOD” (Iogen, LLC, priority 2016, published 2019)
